Results published in patent US9346815B2, “5-chloro-2-difluoromethoxyphenyl pyrazolopyrimidine compounds, compositions and methods of use thereof” (Genentech, Inc., priority 2014, dated 2016).

Legend:
[1] = molecular target: isolated recombinant JAK1 kinase domain (Homo sapiens (Human), UniProt P23458); test: JAK1 enzyme assay (Caliper LabChip, peptide phosphorylation); assay type: biochemical; details: isolated recombinant JAK1 kinase domain, 25 μM ATP
[2] = molecular target: isolated recombinant JAK2 kinase domain (Homo sapiens (Human), UniProt O60674); test: JAK2 enzyme assay (Caliper LabChip, peptide phosphorylation); assay type: biochemical; details: 25 μM ATP
[3] = tested on: JAK1-dependent STAT6 phosphorylation downstream of IL-13 stimulation in TF-1 human erythroleukemia cells; test: JAK1 pathway assay in TF-1 cells (IL-13-pSTAT6, MSD); assay type: cell-based; details: Homo sapiens, TF-1, TF-1 cells, read-out: IL13-pSTAT6 EC50_TF-1
Outline: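 TF-1 cells starved of GM-CSF overnight, assayed serum-free; BEAS-2B cells in complete growth medium. Lysate pSTAT6 measured by MSD; EC50 derived.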

isolated recombinant JAK1 kinase domain, sequence (P23458 875-1153): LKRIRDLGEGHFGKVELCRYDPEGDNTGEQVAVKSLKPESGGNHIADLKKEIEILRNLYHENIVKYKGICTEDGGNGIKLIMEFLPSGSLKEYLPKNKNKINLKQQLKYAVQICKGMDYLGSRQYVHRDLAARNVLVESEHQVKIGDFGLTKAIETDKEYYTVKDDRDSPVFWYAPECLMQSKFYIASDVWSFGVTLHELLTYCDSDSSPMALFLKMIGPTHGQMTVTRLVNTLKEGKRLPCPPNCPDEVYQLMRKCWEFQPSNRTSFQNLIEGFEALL
isolated recombinant JAK2 kinase domain, sequence (O60674 849-1124): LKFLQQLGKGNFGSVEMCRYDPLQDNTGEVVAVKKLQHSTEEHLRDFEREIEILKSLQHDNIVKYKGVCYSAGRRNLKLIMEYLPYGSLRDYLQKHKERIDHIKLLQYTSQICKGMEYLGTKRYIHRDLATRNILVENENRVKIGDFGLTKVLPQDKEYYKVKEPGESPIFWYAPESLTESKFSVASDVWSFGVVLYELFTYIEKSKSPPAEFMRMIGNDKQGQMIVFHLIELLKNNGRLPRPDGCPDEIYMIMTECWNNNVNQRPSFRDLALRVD

| Compound | Ki [1] | Ki [2] | EC50 [3] |
| --- | --- | --- | --- |
| CC(=O)NCCCN1CCC(n2cc(NC(=O)c3c(N)nn4cccnc34)c(-c3cc(Cl)ccc3OC(F)F)n2)CC1 [Example 150, N-[1-[1-(3-acetamidopropyl)-4-piperidyl]-3-[5-chloro-2-(difluoromethoxy)phenyl]pyrazol-4-yl]-2-amino-pyrazolo[1,5-a]pyrimidine-3-carboxamide] | 0.73 nM | 0.17 nM | 20.1 nM |
| CN(CCCN1CCC(n2cc(NC(=O)c3c(N)nn4cccnc34)c(-c3cc(Cl)ccc3OC(F)F)n2)CC1)C(=O)c1ccccc1 [Example 151, 2-amino-N-[1-[1-[3-[benzoyl(methyl)amino]propyl]-4-piperidyl]-3-[5-chloro-2-(difluoromethoxy)phenyl]pyrazol-4-yl]pyrazolo[1,5-a]pyrimidine-3-carboxamide] | 2 nM | 0.42 nM | 93.8 nM |
| O=C(CCCN1CCC(n2cc(NC(=O)c3cnn4cccnc34)c(-c3cc(Cl)ccc3OC(F)F)n2)CC1)NC1CCOCC1 [Example 152, N-[3-[5-chloro-2-(difluoromethoxy)phenyl]-1-[1-[4-oxo-4-(tetrahydropyran-4-ylamino)butyl]-4-piperidyl]pyrazol-4-yl]pyrazolo[1,5-a]pyrimidine-3-carboxamide] | 1.08 nM | 0.19 nM | 11.9 nM |
| O=C(CCCN1CCC(n2cc(NC(=O)c3cnn4cccnc34)c(-c3cc(Cl)ccc3OC(F)F)n2)CC1)NC1COC1 [Example 153, N-[3-[5-chloro-2-(difluoromethoxy)phenyl]-1-[1-[4-(oxetan-3-ylamino)-4-oxo-butyl]-4-piperidyl]pyrazol-4-yl]pyrazolo[1,5-a]pyrimidine-3-carboxamide] | 1.55 nM | 0.27 nM | 36.5 nM |
| CN1CCN(CCCN2CCC(n3cc(NC(=O)c4cnn5cccnc45)c(-c4cc(Cl)ccc4OC(F)F)n3)CC2)C1=O [Example 154, N-[3-[5-chloro-2-(difluoromethoxy)phenyl]-1-[1-[3-(3-methyl-2-oxo-imidazolidin-1-yl)propyl]-4-piperidyl]pyrazol-4-yl]pyrazolo[1,5-a]pyrimidine-3-carboxamide] | 1.42 nM | 0.23 nM | 2.7 nM |
| O=C(Nc1cn(C2CCN(CCCN3CCCC3=O)CC2)nc1-c1cc(Cl)ccc1OC(F)F)c1cnn2cccnc12 [Example 155, N-[3-[5-chloro-2-(difluoromethoxy)phenyl]-1-[1-[3-(2-oxopyrrolidin-1-yl)propyl]-4-piperidyl]pyrazol-4-yl]pyrazolo[1,5-a]pyrimidine-3-carboxamide] | 1.56 nM | 0.24 nM | 5.1 nM |
| CCNC(=O)CCCN1CCC(n2cc(NC(=O)c3cnn4cccnc34)c(-c3cc(Cl)ccc3OC(F)F)n2)CC1 [Example 156, N-[3-[5-chloro-2-(difluoromethoxy)phenyl]-1-[1-[4-(ethylamino)-4-oxo-butyl]-4-piperidyl]pyrazol-4-yl]pyrazolo[1,5-a]pyrimidine-3-carboxamide] | 1.53 nM | 0.19 nM | 31.8 nM |
| CNC(=O)CN1CCC(n2cc(NC(=O)c3cnn4cccnc34)c(-c3cc(Cl)ccc3OC(F)F)n2)CC1 [Example 157, N-[3-[5-chloro-2-(difluoromethoxy)phenyl]-1-[1-[2-(methylamino)-2-oxo-ethyl]-4-piperidyl]pyrazol-4-yl]pyrazolo[1,5-a]pyrimidine-3-carboxamide] | 1.32 nM | 0.75 nM | 9.2 nM |
| O=C(Nc1cn(C2CCN(CCCN3CCOCC3)CC2)nc1-c1cc(Cl)ccc1OC(F)F)c1cnn2cccnc12 [Example 158, N-[3-[5-chloro-2-(difluoromethoxy)phenyl]-1-[1-(3-morpholinopropyl)-4-piperidyl]pyrazol-4-yl]pyrazolo[1,5-a]pyrimidine-3-carboxamide] | 2.12 nM | 0.26 nM | 38.8 nM |
| O=C(Nc1cn(C2CCN(CCCN3CCSCC3)CC2)nc1-c1cc(Cl)ccc1OC(F)F)c1cnn2cccnc12 [Example 159, N-[3-[5-chloro-2-(difluoromethoxy)phenyl]-1-[1-(3-thiomorpholinopropyl)-4-piperidyl]pyrazol-4-yl]pyrazolo[1,5-a]pyrimidine-3-carboxamide] | 2.32 nM | 0.24 nM | 57.8 nM |
| CNC(=O)CCN1CCC(n2cc(NC(=O)c3cnn4cccnc34)c(-c3cc(Cl)ccc3OC(F)F)n2)CC1 [Example 160, N-[3-[5-chloro-2-(difluoromethoxy)phenyl]-1-[1-[3-(methylamino)-3-oxo-propyl]-4-piperidyl]pyrazol-4-yl]pyrazolo[1,5-a]pyrimidine-3-carboxamide] | 3.02 nM | 0.39 nM | 19.3 nM |
| O=C(Nc1cn(C2CCN(CCCN3CCS(=O)(=O)CC3)CC2)nc1-c1cc(Cl)ccc1OC(F)F)c1cnn2cccnc12 [Example 161, N-[3-[5-chloro-2-(difluoromethoxy)phenyl]-1-[1-[3-(1,1-dioxo-1,4-thiazinan-4-yl)propyl]-4-piperidyl]pyrazol-4-yl]pyrazolo[1,5-a]pyrimidine-3-carboxamide] | 1.23 nM | 0.13 nM | 22.3 nM |
| NC(=O)CCCN1CCC(n2cc(NC(=O)c3c(N)nn4cccnc34)c(-c3cc(Cl)ccc3OC(F)F)n2)CC1 [Example 162, 2-amino-N-[1-[1-(4-amino-4-oxo-butyl)-4-piperidyl]-3-[5-chloro-2-(difluoromethoxy)phenyl]pyrazol-4-yl]pyrazolo[1,5-a]pyrimidine-3-carboxamide] | 0.59 nM | 0.18 nM | 15.4 nM |
| Nc1nn2cccnc2c1C(=O)Nc1cn(C2CCN(CCCN3CCNC3=O)CC2)nc1-c1cc(Cl)ccc1OC(F)F [Example 163, 2-amino-N-[3-[5-chloro-2-(difluoromethoxy)phenyl]-1-[1-[3-(2-oxoimidazolidin-1-yl)propyl]-4-piperidyl]pyrazol-4-yl]pyrazolo[1,5-a]pyrimidine-3-carboxamide] | 0.69 nM | 0.19 nM | 7.3 nM |
| CN1CCN(CCCN2CCC(n3cc(NC(=O)c4c(N)nn5cccnc45)c(-c4cc(Cl)ccc4OC(F)F)n3)CC2)C1=O [Example 164, 2-amino-N-[3-[5-chloro-2-(difluoromethoxy)phenyl]-1-[1-[3-(3-methyl-2-oxo-imidazolidin-1-yl)propyl]-4-piperidyl]pyrazol-4-yl]pyrazolo[1,5-a]pyrimidine-3-carboxamide] | 0.44 nM | 0.06 nM | 5.6 nM |

Continued, values first:

| Ki [1] | Ki [2] | EC50 [3] | Compound |
| --- | --- | --- | --- |
| 0.38 nM | 0.15 nM | 6.9 nM | NC(=O)CCN1CCC(n2cc(NC(=O)c3c(N)nn4cccnc34)c(-c3cc(Cl)ccc3OC(F)F)n2)CC1 [Example 165, 2-amino-N-[1-[1-(3-amino-3-oxo-propyl)-4-piperidyl]-3-[5-chloro-2-(difluoromethoxy)phenyl]pyrazol-4-yl]pyrazolo[1,5-a]pyrimidine-3-carboxamide] |
| 0.91 nM | 0.26 nM | 22.9 nM | Nc1nn2cccnc2c1C(=O)Nc1cn(C2CCN(CCCN3CCN(Cc4ccccc4)C3=O)CC2)nc1-c1cc(Cl)ccc1OC(F)F [Example 166, 2-amino-N-[1-[1-[3-(3-benzyl-2-oxo-imidazolidin-1-yl)propyl]-4-piperidyl]-3-[5-chloro-2-(difluoromethoxy)phenyl]pyrazol-4-yl]pyrazolo[1,5-a]pyrimidine-3-carboxamide] |
| 0.53 nM | 0.18 nM | 19.7 nM | Nc1nn2cccnc2c1C(=O)Nc1cn(C2CCN(CCCC(=O)NCc3ccccc3)CC2)nc1-c1cc(Cl)ccc1OC(F)F [Example 167, 2-amino-N-[1-[1-[4-(benzylamino)-4-oxo-butyl]-4-piperidyl]-3-[5-chloro-2-(difluoromethoxy)phenyl]pyrazol-4-yl]pyrazolo[1,5-a]pyrimidine-3-carboxamide] |
| 1.47 nM | 0.29 nM | 7.7 nM | CNC(=O)CCCN1CCC(n2cc(NC(=O)c3cnn4cccnc34)c(-c3cc(Cl)ccc3OC(F)F)n2)CC1 [Example 168, N-[3-[5-chloro-2-(difluoromethoxy)phenyl]-1-[1-[4-(methylamino)-4-oxo-butyl]-4-piperidyl]pyrazol-4-yl]pyrazolo[1,5-a]pyrimidine-3-carboxamide] |
| 1.16 nM | 0.22 nM | 6.8 nM | O=C(Nc1cn(C2CCN(CCCC(=O)N3CCOCC3)CC2)nc1-c1cc(Cl)ccc1OC(F)F)c1cnn2cccnc12 [Example 169, N-[3-[5-chloro-2-(difluoromethoxy)phenyl]-1-[1-(4-morpholino-4-oxo-butyl)-4-piperidyl]pyrazol-4-yl]pyrazolo[1,5-a]pyrimidine-3-carboxamide] |
| 1.67 nM | 0.25 nM | 11.4 nM | NC(=O)CCCN1CCC(n2cc(NC(=O)c3cnn4cccnc34)c(-c3cc(Cl)ccc3OC(F)F)n2)CC1 [Example 170, N-[1-[1-(4-amino-4-oxo-butyl)-4-piperidyl]-3-[5-chloro-2-(difluoromethoxy)phenyl]pyrazol-4-yl]pyrazolo[1,5-a]pyrimidine-3-carboxamide] |
| 0.88 nM | 0.15 nM | 15.9 nM | CN1CCCC(n2cc(NC(=O)c3c(N)nn4cccnc34)c(-c3cc(Cl)ccc3OC(F)F)n2)CC1 (stereo not drawn) [Example 172, 2-amino-N-[3-[5-chloro-2-(difluoromethoxy)phenyl]-1-(1-methylazepan-4-yl)pyrazol-4-yl]pyrazolo[1,5-a]pyrimidine-3-carboxamide] |
| 0.58 nM | 0.13 nM | 4.8 nM | CC(=O)N1CCC(CN2CCC(n3cc(NC(=O)c4c(N)nn5cccnc45)c(-c4cc(Cl)ccc4OC(F)F)n3)CC2)CC1 [Example 173, N-[1-[1-[(1-acetyl-4-piperidyl)methyl]-4-piperidyl]-3-[5-chloro-2-(difluoromethoxy)phenyl]pyrazol-4-yl]-2-amino-pyrazolo[1,5-a]pyrimidine-3-carboxamide] |
